The GI50 is the concentration that inhibits growth by half. By TGI is commonly meant the concentration giving total growth inhibition. Read a high TGI as lower sensitivity of the cells.

Among the test systems are KM12 colon; K-562 leukemia; T-47D breast; ACHN renal; A549 NSCLC; PC-3 prostate; MALME-3M melanoma; HT29 colon; OVCAR-5 ovarian; HOP-92 NSCLC.
What all share (assay): DTP human tumour cell line panel, 48 h

“And” between values parts separate entries of the source, which are not always exact repeats. Identical values can stand only once.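 Tested at 5 concentrations; 48 h exposure; 96-well plates; endpoints linearly interpolated, else capped at highest concentration. GI50: concentration for 50% inhibition of growth. The concentration for full growth arrest is given as TGI.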

Turning to `Fc1ccc(C2C3CCOc4c(ccc5ccccc45)C3=NN2c2ccccc2)cc1` (stereo not drawn), the GI50 in the assay with KM12 colon was above 100 µM; with K-562 leukemia, 49 µM; with T-47D breast, 25.4 µM; in the assay with ACHN renal it was 88.6 µM; with A549 NSCLC, 48.9 µM; in the assay with PC-3 prostate, above 54.9 µM. Moreover, the GI50 was above 38.7 µM with MALME-3M melanoma, above 100 µM in the assay on HT29 colon, above 100 µM with OVCAR-5 ovarian and above 84.6 µM in the assay on HOP-92 NSCLC. The concentration for total growth inhibition (TGI) was above 100 µM in the assay with KM12 colon; above 100 µM in the assay with K-562 leukemia; above 94.8 µM in the assay with T-47D breast; above 100 µM in the assay with ACHN renal; above 100 µM in the assay with A549 NSCLC; above 100 µM in the assay with PC-3 prostate. In addition, the concentration for total growth inhibition (TGI) in the assay on MALME-3M melanoma, in the assay on HT29 colon, with OVCAR-5 ovarian and in the assay with HOP-92 NSCLC was above 100 µM in each case.
As for `N#Cc1ccc(/C=C/C(=O)c2ccccc2)cc1`, the GI50 in the assay with KM12 colon was 1.79 µM and 1.83 µM; in the assay with K-562 leukemia, 2.83 µM and 2.3 µM; in the assay with T-47D breast it was 11.1 µM and 12.2 µM; in the assay on ACHN renal, 12.3 µM and 16.2 µM; with A549 NSCLC it was 14.8 µM and 15.4 µM; in the assay on PC-3 prostate it was 13 µM and 10.7 µM. Besides, the GI50 in the assay with MALME-3M melanoma is 18.2 µM and 14.9 µM; in the assay on HT29 colon, 2.33 µM and 2.53 µM; in the assay with OVCAR-5 ovarian it was 16.6 µM and 14.6 µM; with HOP-92 NSCLC, 16.9 µM and 17.6 µM. In addition, the TGI in the assay with KM12 colon was 3.46 µM and 3.54 µM; in the assay with K-562 leukemia, above 26.2 µM; in the assay with T-47D breast, 24.7 µM and 27.7 µM; with ACHN renal, 24.8 µM and 29.8 µM; in the assay with A549 NSCLC, 27.9 µM and 31.8 µM; in the assay with PC-3 prostate it was 31.4 µM and 26.6 µM. Besides, the TGI was 33.6 µM and 31 µM in the assay with MALME-3M melanoma; 6.05 µM and 7 µM in the assay on HT29 colon; 31.1 µM and 30 µM in the assay on OVCAR-5 ovarian; 65.5 µM and 39 µM in the assay with HOP-92 NSCLC.
For `CC12CC(=O)C3C(CCC4=CC(=O)CCC43C)C1CC=C2CC(=O)O` (stereo not drawn), the concentration for total growth inhibition (TGI) in the assay on KM12 colon, in the assay on K-562 leukemia, with T-47D breast, in the assay on ACHN renal, in the assay with A549 NSCLC and in the assay with PC-3 prostate was above 100 µM throughout. Besides, the TGI with MALME-3M melanoma, in the assay with HT29 colon, with OVCAR-5 ovarian and in the assay with HOP-92 NSCLC was above 100 µM each time.
`COC(=O)c1ccc2c(C(=Nc3ccc(N(C)C(=O)CN4CCN(C)CC4)cc3)c3ccccc3)c(O)[nH]c2c1`: the GI50 was 0.066 µM and 0.073 µM in the assay with KM12 colon; 0.224 µM and 0.466 µM in the assay on K-562 leukemia; 3.66 µM and 16.7 µM with T-47D breast; 1.58 µM and 2.51 µM in the assay on ACHN renal; 2.74 µM and 2.79 µM in the assay on A549 NSCLC; 5.2 µM and 25.6 µM in the assay with PC-3 prostate. Further, the GI50 in the assay on MALME-3M melanoma is 1.37 µM and 1.44 µM; in the assay with HT29 colon, 1.22 µM; in the assay on OVCAR-5 ovarian it was 1.73 µM and 6.75 µM; with HOP-92 NSCLC, 0.69 µM and 1.56 µM. Also, the TGI with KM12 colon was 2.05 µM and 1.98 µM; with K-562 leukemia, above 100 µM; in the assay on T-47D breast it was 36.3 µM and > 100 µM; with A549 NSCLC it was above 100 µM; with PC-3 prostate, 53.2 µM and > 100 µM; in the assay with MALME-3M melanoma it was 2.94 µM and 3.46 µM. Besides, the TGI in the assay on HT29 colon was 3.9 µM; with HOP-92 NSCLC, 12.7 µM and 15 µM.
With `CC/C(=N/N=C(N)N)c1ccc(NC(=O)Nc2ccc(/C(CC)=N/N=C(N)N)cc2)cc1`, the GI50 with KM12 colon was 3.49 µM; in the assay with K-562 leukemia it was 1.06 µM; in the assay with T-47D breast, 5.81 µM; with ACHN renal, 5.78 µM; in the assay on A549 NSCLC, 5.1 µM; with PC-3 prostate, 6.27 µM. For the same compound, the GI50 in the assay with MALME-3M melanoma was 8.24 µM; in the assay on HT29 colon, 7.12 µM; with OVCAR-5 ovarian, 18.8 µM; in the assay on HOP-92 NSCLC, 5.67 µM. Moreover, the concentration for total growth inhibition (TGI) with KM12 colon was 20.1 µM; in the assay with K-562 leukemia, 7.25 µM; in the assay on T-47D breast it was 74.1 µM; with ACHN renal, 24.5 µM; in the assay on A549 NSCLC it was 22.4 µM; with PC-3 prostate it was 33.7 µM. Also, the TGI was determined as 54.5 µM with MALME-3M melanoma, 28.1 µM in the assay with HT29 colon, 44.6 µM with OVCAR-5 ovarian and 35.2 µM in the assay on HOP-92 NSCLC.
In the case of `Fc1ccc(-c2c(-c3ccncc3)[nH]c3nccnc23)cc1`, the GI50 is 8.92 µM in the assay with KM12 colon; above 25 µM with K-562 leukemia; 7.09 µM in the assay with T-47D breast; 3.05 µM in the assay on ACHN renal; 7.35 µM in the assay on A549 NSCLC; above 25 µM in the assay on PC-3 prostate. For the same compound, the GI50 is above 9.39 µM with MALME-3M melanoma, 6.41 µM in the assay on HT29 colon, 11.2 µM with OVCAR-5 ovarian and above 25 µM in the assay with HOP-92 NSCLC. Also, the total growth inhibition concentration (TGI) in the assay on KM12 colon, in the assay on K-562 leukemia, in the assay on T-47D breast, with ACHN renal, in the assay with A549 NSCLC and in the assay with PC-3 prostate was above 25 µM each time. Further, the TGI in the assay with MALME-3M melanoma is above 17.4 µM; in the assay on HT29 colon, above 25 µM; in the assay with OVCAR-5 ovarian it was above 25 µM; in the assay on HOP-92 NSCLC it was above 25 µM.
Consider `Oc1cccc(-c2nc(-c3ccccc3)[nH]c2-c2ccncc2)c1`, for which the GI50 in the assay on KM12 colon is 13 µM; in the assay on K-562 leukemia, 11.7 µM; in the assay with T-47D breast, 9.31 µM; in the assay on ACHN renal it was 9.08 µM; in the assay on A549 NSCLC, 14.6 µM; in the assay on PC-3 prostate it was above 20.8 µM. The GI50 in the assay with MALME-3M melanoma was 0.719 µM; in the assay on HT29 colon, 7.46 µM; with OVCAR-5 ovarian it was 16.9 µM; with HOP-92 NSCLC it was 5.98 µM. Moreover, the TGI in the assay with KM12 colon was above 25 µM; in the assay on K-562 leukemia, above 25 µM; in the assay on T-47D breast, 24.3 µM; with ACHN renal, above 25 µM; in the assay on A549 NSCLC it was above 25 µM; in the assay with PC-3 prostate, above 25 µM. Moreover, the TGI in the assay on MALME-3M melanoma is 8.01 µM; in the assay on HT29 colon, above 25 µM; in the assay with OVCAR-5 ovarian, above 25 µM; in the assay with HOP-92 NSCLC, 24.2 µM.
On to `Cc1cc2c(cc1Cl)SC(C(=O)c1ccc(Cl)c(Cl)c1)NS2(=O)=O` (stereo not drawn), for which the GI50 with KM12 colon is 30.9 µM; in the assay on K-562 leukemia it was 35.6 µM; with T-47D breast it was 19.9 µM; with ACHN renal it was 29.8 µM; in the assay with A549 NSCLC it was 45.2 µM; with PC-3 prostate, 32.5 µM. Further, the GI50 is 45.3 µM in the assay with MALME-3M melanoma, 36.1 µM in the assay on HT29 colon, 49.2 µM with OVCAR-5 ovarian and 25.2 µM with HOP-92 NSCLC. The TGI in the assay with KM12 colon was 80.9 µM; with K-562 leukemia, above 100 µM; with T-47D breast, 49.9 µM; in the assay on ACHN renal, 85.6 µM; in the assay on A549 NSCLC, above 100 µM; in the assay on PC-3 prostate it was above 100 µM. For the same compound, the TGI in the assay with MALME-3M melanoma was above 100 µM; with HT29 colon, above 100 µM; with OVCAR-5 ovarian it was above 100 µM; in the assay on HOP-92 NSCLC, 65.9 µM.

The values are drawn from PubChem BioAssay (NCI).
